# In article PMC5218480 (PLoS ONE, 2017):
# Test system: MV-4-11 cells
# Assay: Gene expression microarray analysis (Affymetrix PrimeView) and GSEA
# Assay type: cell-based, human
# Parameters: RFU PODN (11730768_x_at) / Fold change /veh PODN (11730768_x_at) / RFU LINC00158 (11744669_a_at) / Fold change /veh LINC00158 (11744669_a_at) / RFU DUSP10 (11751237_a_at) / Fold change /veh DUSP10 (11751237_a_at) / RFU ID3 (11757404_x_at) / Fold change /veh ID3 (11757404_x_at) / RFU PLEKHG5 (11737974_s_at) / Fold change /veh PLEKHG5 (11737974_s_at) / RFU LRRC4B (11730491_at) / Fold change /veh LRRC4B (11730491_at) / RFU GIMAP4 (11747438_a_at) / Fold change /veh GIMAP4 (11747438_a_at) / RFU KRT8 (11758183_x_at) / Fold change /veh KRT8 (11758183_x_at) / RFU CNN1 (11734310_a_at) / Fold change /veh CNN1 (11734310_a_at) / RFU VPS37D (11726825_at) / Fold change /veh VPS37D (11726825_at) / RFU C10orf10 (11716522_x_at) / Fold change /veh C10orf10 (11716522_x_at) / RFU KIR2DL2 /// KIR2DL4 /// KIR2DL5A /// KIR2DL5B /// KIR2DS1 /// KIR2DS2 /// KIR2DS3 /// KIR2DS4 /// KIR3DL3 /// KIR3DL3 /// KIR3DS1 (11738374_at) / Fold change /veh KIR2DL2 /// KIR2DL4 /// KIR2DL5A /// KIR2DL5B /// KIR2DS1 /// KIR2DS2 /// KIR2DS3 /// KIR2DS4 /// KIR3DL3 /// KIR3DL3 /// KIR3DS1 (11738374_at) / RFU C1QL1 (11718748_at) / Fold change /veh C1QL1 (11718748_at) / RFU TMPRSS4 (11747572_a_at) / Fold change /veh TMPRSS4 (11747572_a_at) / RFU HAMP (11756126_x_at) / Fold change /veh HAMP (11756126_x_at) / RFU RNFT2 (11725882_a_at) / Fold change /veh RNFT2 (11725882_a_at) / RFU NR4A2 (11747474_a_at) / Fold change /veh NR4A2 (11747474_a_at) / RFU ABCC12 (11746883_a_at) / Fold change /veh ABCC12 (11746883_a_at) / RFU TMEM136 (11760407_x_at) / Fold change /veh TMEM136 (11760407_x_at) / RFU CLDN22 /// WWC2 (11732394_at) / Fold change /veh CLDN22 /// WWC2 (11732394_at) / RFU HLA-DPB1 (11760878_x_at) / Fold change /veh HLA-DPB1 (11760878_x_at) / RFU SPINT1 (11716480_a_at) / Fold change /veh SPINT1 (11716480_a_at) / RFU GAP43 (11754022_s_at) / Fold change /veh GAP43 (11754022_s_at) / RFU A4GNT (11735810_at) / Fold change /veh A4GNT (11735810_at) / RFU PRB3 (11715151_x_at) / Fold change /veh PRB3 (11715151_x_at) / RFU TUBB4B (11761932_at) / Fold change /veh TUBB4B (11761932_at) / RFU CAPN14 (11732068_a_at) / Fold change /veh CAPN14 (11732068_a_at) / RFU TMCC2 (11721928_a_at) / Fold change /veh TMCC2 (11721928_a_at) / RFU IRGQ (11745062_a_at) / Fold change /veh IRGQ (11745062_a_at) / RFU FAM174B (11720279_a_at) / Fold change /veh FAM174B (11720279_a_at) / RFU TMPRSS4 (11748680_a_at) / Fold change /veh TMPRSS4 (11748680_a_at) / RFU FAM212B (11763350_a_at) / Fold change /veh FAM212B (11763350_a_at) / RFU PLEKHG5 (11743358_a_at) / Fold change /veh PLEKHG5 (11743358_a_at) / RFU ZSCAN30 (11745921_a_at) / Fold change /veh ZSCAN30 (11745921_a_at) / RFU CMKLR1 (11741424_a_at) / Fold change /veh CMKLR1 (11741424_a_at) / RFU LOC101060620 /// MAPK8IP1 (11723275_at) / Fold change /veh LOC101060620 /// MAPK8IP1 (11723275_at) / RFU SPTSSB (11747773_x_at) / Fold change /veh SPTSSB (11747773_x_at) / RFU PRSS12 (11739890_at) / Fold change /veh PRSS12 (11739890_at) / RFU BIN1 (11741810_x_at) / Fold change /veh BIN1 (11741810_x_at) / RFU WNT11 (11732464_a_at) / Fold change /veh WNT11 (11732464_a_at) / RFU C10orf10 (11716521_a_at) / Fold change /veh C10orf10 (11716521_a_at) / RFU C5orf56 (11738089_at) / Fold change /veh C5orf56 (11738089_at) / RFU CYB561 (11721691_x_at) / Fold change /veh CYB561 (11721691_x_at) / RFU ANKRD19P (11752326_a_at) / Fold change /veh ANKRD19P (11752326_a_at) / RFU OR2T12 /// OR2T33 /// OR2T8 (11738714_s_at) / Fold change /veh OR2T12 /// OR2T33 /// OR2T8 (11738714_s_at) / RFU VCAN (11748164_a_at) / Fold change /veh VCAN (11748164_a_at) / RFU JSRP1 (11732532_at) / Fold change /veh JSRP1 (11732532_at) / RFU KRTAP10-11 (11738290_x_at) / Fold change /veh KRTAP10-11 (11738290_x_at) / RFU MYO3A (11730013_a_at) / Fold change /veh MYO3A (11730013_a_at) / RFU EBF3 (11725865_a_at) / Fold change /veh EBF3 (11725865_a_at) / RFU CAMK2N1 (11719241_x_at) / Fold change /veh CAMK2N1 (11719241_x_at) / RFU C5orf56 (11738088_a_at) / Fold change /veh C5orf56 (11738088_a_at) / RFU OLFML3 (11715873_a_at) / Fold change /veh OLFML3 (11715873_a_at) / RFU LOC100653217 /// NTM (11731650_a_at) / Fold change /veh LOC100653217 /// NTM (11731650_a_at) / RFU MAPK11 (11762145_a_at) / Fold change /veh MAPK11 (11762145_a_at) / RFU FIZ1 (11724087_x_at) / Fold change /veh FIZ1 (11724087_x_at) / RFU OASL (11726364_x_at) / Fold change /veh OASL (11726364_x_at) / RFU SOX15 (11748057_x_at) / Fold change /veh SOX15 (11748057_x_at) / RFU CD79A (11719716_a_at) / Fold change /veh CD79A (11719716_a_at) / RFU HIST1H1D (11736915_at) / Fold change /veh HIST1H1D (11736915_at) / RFU CASKIN2 (11723855_a_at) / Fold change /veh CASKIN2 (11723855_a_at) / RFU LOC730098 (11760151_x_at) / Fold change /veh LOC730098 (11760151_x_at) / RFU OR4N2 (11742367_at) / Fold change /veh OR4N2 (11742367_at) / RFU PRRT2 (11749266_a_at) / Fold change /veh PRRT2 (11749266_a_at) / RFU SNX32 (11753110_a_at) / Fold change /veh SNX32 (11753110_a_at) / RFU CDHR5 (11726645_a_at) / Fold change /veh CDHR5 (11726645_a_at) / RFU RCAN1 (11760418_a_at) / Fold change /veh RCAN1 (11760418_a_at) / RFU FAM167A (11723789_a_at) / Fold change /veh FAM167A (11723789_a_at) / RFU FAM26E (11764081_at) / Fold change /veh FAM26E (11764081_at) / RFU ISYNA1 (11749810_s_at) / Fold change /veh ISYNA1 (11749810_s_at) / RFU ACY1 (11761880_at) / Fold change /veh ACY1 (11761880_at) / RFU 11764098_at / Fold change /veh 11764098_at / RFU SAMD14 (11745864_x_at) / Fold change /veh SAMD14 (11745864_x_at) / RFU NPB (11741838_a_at) / Fold change /veh NPB (11741838_a_at) / RFU TMPRSS6 (11731388_a_at) / Fold change /veh TMPRSS6 (11731388_a_at) / RFU KRTAP10-2 (11738614_at) / Fold change /veh KRTAP10-2 (11738614_at) / RFU ARHGAP8 /// PRR5-ARHGAP8 (11727945_x_at) / Fold change /veh ARHGAP8 /// PRR5-ARHGAP8 (11727945_x_at) / RFU KRTAP5-7 /// NADSYN1 (11734609_at) / Fold change /veh KRTAP5-7 /// NADSYN1 (11734609_at) / RFU RASL12 (11751679_a_at) / Fold change /veh RASL12 (11751679_a_at) / RFU CDKN2B (11736163_a_at) / Fold change /veh CDKN2B (11736163_a_at) / RFU PRF1 (11729649_at) / Fold change /veh PRF1 (11729649_at) / RFU, ZNF638 /// ZNF638-IT1 / Fold change vs veh, ZNF638 /// ZNF638-IT1 / RFU, PANK3 / Fold change vs veh, PANK3 / RFU, SH3YL1 / Fold change vs veh, SH3YL1 / RFU, ZEB2 / Fold change vs veh, ZEB2 / RFU, NRIP1 / Fold change vs veh, NRIP1 / RFU, PTTG1IP / Fold change vs veh, PTTG1IP / RFU, CAPN2 / Fold change vs veh, CAPN2 / RFU, MED14 / Fold change vs veh, MED14 / RFU, SNORA58 / Fold change vs veh, SNORA58 / RFU, C1orf63 / Fold change vs veh, C1orf63 / RFU, LRRFIP1 / Fold change vs veh, LRRFIP1 / RFU, NDUFAF7 / Fold change vs veh, NDUFAF7 / RFU, SLC12A2 / Fold change vs veh, SLC12A2 / RFU, IBTK / Fold change vs veh, IBTK / RFU, ESF1 / Fold change vs veh, ESF1 / Fold change vs veh, TMEM50B / RFU, TAOK1 / Fold change vs veh, TAOK1 / RFU, ACBD3 / Fold change vs veh, ACBD3 / RFU, TMA16 / Fold change vs veh, TMA16 / RFU, RWDD3 / Fold change vs veh, RWDD3 / RFU, BCAT1 / Fold change vs veh, BCAT1 / RFU, EDEM3 / Fold change vs veh, EDEM3 / RFU, TMEM33 / Fold change vs veh, TMEM33 / RFU, WDR75 / Fold change vs veh, WDR75 / RFU, AHCTF1 / Fold change vs veh, AHCTF1 / RFU, TFRC / Fold change vs veh, TFRC / RFU, ZDHHC17 / Fold change vs veh, ZDHHC17 / RFU, NOM1 / Fold change vs veh, NOM1 / RFU, ARL8B / Fold change vs veh, ARL8B / RFU, ZBTB11 / Fold change vs veh, ZBTB11 / RFU, TAMM41 / Fold change vs veh, TAMM41 / RFU, KIAA1704 /// LOC100996395 / Fold change vs veh, KIAA1704 /// LOC100996395 / RFU, ING1 / Fold change vs veh, ING1 / RFU, TRMT61B / Fold change vs veh, TRMT61B / RFU, FUBP3 / Fold change vs veh, FUBP3 / RFU, TP53 / Fold change vs veh, TP53 / RFU, TNKS2 / Fold change vs veh, TNKS2 / RFU, ZFP14 / Fold change vs veh, ZFP14 / RFU, ACTR2 / Fold change vs veh, ACTR2 / RFU, PPP3R1 / Fold change vs veh, PPP3R1 / RFU, PIK3R1 / Fold change vs veh, PIK3R1 / RFU, HNRNPA1 / Fold change vs veh, HNRNPA1 / RFU, RNF170 / Fold change vs veh, RNF170 / RFU, ZNF28 / Fold change vs veh, ZNF28 / RFU, RNGTT / Fold change vs veh, RNGTT / RFU, OGT / Fold change vs veh, OGT / RFU, BRD1 / Fold change vs veh, BRD1 / RFU, MARS / Fold change vs veh, MARS / RFU, ZNF655 / Fold change vs veh, ZNF655 / RFU, FAHD1 / Fold change vs veh, FAHD1 / RFU, BDP1 / Fold change vs veh, BDP1 / RFU, LRRCC1 / Fold change vs veh, LRRCC1 / RFU, ARID1A / Fold change vs veh, ARID1A / RFU, ZNF146 / Fold change vs veh, ZNF146 / RFU, ZNF330 / Fold change vs veh, ZNF330 / RFU, GPN3 / Fold change vs veh, GPN3 / RFU, C9orf123 / Fold change vs veh, C9orf123 / RFU, N4BP2L2 / Fold change vs veh, N4BP2L2 / RFU, ARFIP1 / Fold change vs veh, ARFIP1 / RFU, FAM179B / Fold change vs veh, FAM179B / RFU, BCL10 / Fold change vs veh, BCL10 / RFU, UHRF1BP1L / Fold change vs veh, UHRF1BP1L / RFU, BET1 / Fold change vs veh, BET1 / RFU, CNOT2 / Fold change vs veh, CNOT2 / RFU, ZNF268 / Fold change vs veh, ZNF268 / Fold change vs veh, ZNF507 / RFU, DGCR2 / Fold change vs veh, DGCR2 / RFU, WDSUB1 / Fold change vs veh, WDSUB1 / Fold change vs veh, HSP90B1 /// MIR3652 / RFU, ADSS / Fold change vs veh, ADSS / RFU, GK / Fold change vs veh, GK / RFU, ZNF148 / Fold change vs veh, ZNF148 / RFU, TAF9 / Fold change vs veh, TAF9 / RFU, SLC1A5 / Fold change vs veh, SLC1A5 / RFU, SLMO2 / Fold change vs veh, SLMO2 / RFU, ABCC4 / Fold change vs veh, ABCC4 / RFU, LOC101060439 /// RAP1B / Fold change vs veh, LOC101060439 /// RAP1B / RFU, RFX7 / Fold change vs veh, RFX7 / RFU, GTPBP10 / Fold change vs veh, GTPBP10 / RFU, CNEP1R1 / Fold change vs veh, CNEP1R1 / RFU, BIVM-ERCC5 /// ERCC5 / Fold change vs veh, BIVM-ERCC5 /// ERCC5 / RFU, ILF3 / Fold change vs veh, ILF3 / RFU 11762660_at / Fold change /veh 11762660_at / RFU VCAN (11757783_s_at) / Fold change /veh VCAN (11757783_s_at) / RFU DDX43 (11728927_at) / Fold change /veh DDX43 (11728927_at) / RFU KRT8 (11758188_x_at) / Fold change /veh KRT8 (11758188_x_at) / RFU NKD1 (11759106_at) / Fold change /veh NKD1 (11759106_at) / RFU SRD5A1 (11742802_a_at) / Fold change /veh SRD5A1 (11742802_a_at) / RFU TPSAB1 /// TPSB2 (11721975_s_at) / Fold change /veh TPSAB1 /// TPSB2 (11721975_s_at) / RFU GSTM3 (11746129_a_at) / Fold change /veh GSTM3 (11746129_a_at) / RFU IL23R (11737362_x_at) / Fold change /veh IL23R (11737362_x_at) / RFU TMEM51 (11727254_a_at) / Fold change /veh TMEM51 (11727254_a_at) / RFU PIWIL2 (11732686_x_at) / Fold change /veh PIWIL2 (11732686_x_at) / RFU ORM1 (11744905_x_at) / Fold change /veh ORM1 (11744905_x_at) / RFU CCDC152 (11743942_at) / Fold change /veh CCDC152 (11743942_at) / RFU ECM1 (11717891_a_at) / Fold change /veh ECM1 (11717891_a_at) / RFU IL23R (11748794_a_at) / Fold change /veh IL23R (11748794_a_at) / RFU TNFAIP8L3 (11732012_x_at) / Fold change /veh TNFAIP8L3 (11732012_x_at) / RFU MBOAT4 (11741988_at) / Fold change /veh MBOAT4 (11741988_at) / RFU 11764193_at / Fold change /veh 11764193_at / RFU TMEM53 (11763286_at) / Fold change /veh TMEM53 (11763286_at) / RFU MAGEB2 (11727129_at) / Fold change /veh MAGEB2 (11727129_at) / RFU TMEM200A (11744735_a_at) / Fold change /veh TMEM200A (11744735_a_at) / RFU CCDC152 (11751479_a_at) / Fold change /veh CCDC152 (11751479_a_at) / RFU FAM211A (11726209_a_at) / Fold change /veh FAM211A (11726209_a_at) / RFU RGS16 (11746705_a_at) / Fold change /veh RGS16 (11746705_a_at) / RFU VCAN (11755009_s_at) / Fold change /veh VCAN (11755009_s_at) / RFU RHOB (11743442_s_at) / Fold change /veh RHOB (11743442_s_at) / RFU RGS16 (11720943_a_at) / Fold change /veh RGS16 (11720943_a_at) / RFU RGS16 (11720944_at) / Fold change /veh RGS16 (11720944_at) / RFU, VPS4B / Fold change vs veh, VPS4B / RFU, CREB1 / Fold change vs veh, CREB1 / RFU, DNAJC13 / Fold change vs veh, DNAJC13 / RFU, GNAQ / Fold change vs veh, GNAQ / RFU, CDK5R1 / Fold change vs veh, CDK5R1 / RFU, ZRANB3 / Fold change vs veh, ZRANB3 / RFU, CUL4A / Fold change vs veh, CUL4A / RFU, CCNY / Fold change vs veh, CCNY / RFU, UFL1 / Fold change vs veh, UFL1 / RFU, COG3 / Fold change vs veh, COG3 / RFU, DIAPH2 / Fold change vs veh, DIAPH2 / RFU, SKA2 / Fold change vs veh, SKA2 / RFU, AFF3 / Fold change vs veh, AFF3 / RFU, LMF1 / Fold change vs veh, LMF1 / RFU, IPO11 / Fold change vs veh, IPO11 / RFU, DFFB / Fold change vs veh, DFFB / RFU, FOXP1 / Fold change vs veh, FOXP1 / RFU, CARD8 / Fold change vs veh, CARD8 / RFU, STRN3 / Fold change vs veh, STRN3 / RFU, ADK / Fold change vs veh, ADK / RFU, RASSF2 / Fold change vs veh, RASSF2 / RFU, WIPF1 / Fold change vs veh, WIPF1 / RFU, LARP1B / Fold change vs veh, LARP1B / RFU, RASA1 / Fold change vs veh, RASA1 / RFU, RB1 / Fold change vs veh, RB1 / RFU, PPFIA1 / Fold change vs veh, PPFIA1 / RFU, MAT2A / Fold change vs veh, MAT2A / RFU, CCT5 / Fold change vs veh, CCT5 / RFU, WDR92 / Fold change vs veh, WDR92 / RFU, CUX1 / Fold change vs veh, CUX1 / RFU, TTC7A / Fold change vs veh, TTC7A / RFU, TMEM135 / Fold change vs veh, TMEM135 / RFU, DEPTOR / Fold change vs veh, DEPTOR / RFU, CPM / Fold change vs veh, CPM / RFU, DNAJB6 / Fold change vs veh, DNAJB6 / RFU, CACNA2D3 / Fold change vs veh, CACNA2D3 / RFU, DTX4 / Fold change vs veh, DTX4 / RFU, TFCP2 / Fold change vs veh, TFCP2 / RFU, GMCL1 /// GMCL1P1 / Fold change vs veh, GMCL1 /// GMCL1P1 / RFU, AEBP2 / Fold change vs veh, AEBP2 / RFU, SNHG1 /// SNORD22 /// SNORD25 /// SNORD26 /// SNORD27 /// SNORD28 /// SNORD29 /// SNORD31 / Fold change vs veh, SNHG1 /// SNORD22 /// SNORD25 /// SNORD26 /// SNORD27 /// SNORD28 /// SNORD29 /// SNORD31 / Fold change (Aza/veh), C12orf56 (ProbeSet 11735607_a_at) / Fold change (ACY-1035/veh), C12orf56 (ProbeSet 11735607_a_at) / Fold change (Aza/veh), FGFR1OP (ProbeSet 11751329_s_at) / Fold change (ACY-1035/veh), FGFR1OP (ProbeSet 11751329_s_at) / Fold change (Aza/veh), VPS36 (ProbeSet 11739960_a_at) / Fold change (ACY-1035/veh), VPS36 (ProbeSet 11739960_a_at) / RFU SYPL1 (11715823_x_at) / Fold change /veh SYPL1 (11715823_x_at) / RFU IGFBP7 (11715501_s_at) / Fold change /veh IGFBP7 (11715501_s_at) / RFU REEP3 (11722064_at) / Fold change /veh REEP3 (11722064_at) / RFU IGLL1 (11728026_x_at) / Fold change /veh IGLL1 (11728026_x_at): dose or concentration left out as unconfirmed
# Conditions: ProbeSet 11721559_s_at; LIST B
smiles,measurement,value
Nc1ccc(-c2cccs2)cc1NC(=O)c1ccc2c(c1)cc(C1CC1)n2CCN1CCOCC1 [ACY-1035],"Fold change vs veh, ZNF638 /// ZNF638-IT1",0.85
